Measurements taken from publication PMC5602538, “Assessment of the Drug Interaction Potential of Unconjugated and GalNAc3-Conjugated 2′-MOE-ASOs” (Molecular Therapy. Nucleic Acids, 2017).
{GalNAc3} = trishexylamino-C6 triantennary GalNAc conjugate; e = 2'-O-(2-methoxyethyl) (MOE); d = 2'-deoxy (DNA)

Columns and labels:
Assay type in all cases: in vitro ADME
OCT1 = test system: T1, OCT1; experiment: OCT1 substrate uptake study in MDCK cells; conditions: 10 μM ASO
T1 construct: expressed in transfected cells; host or cells: MDCK-II
Protocol: (§1) A 96-well cell culture plate containing a monolayer of MDCK-II cells grown on a permeable support and a corresponding receiver tray was used. The basolateral compartment of the culture plate and wells were washed with warm HBSS three times, with wells of the culture plate serving as the apical compartment. The wash was aspirated by adding 150 μL of 37°C HBSS to both compartments. Plates were incubated at 37°C with orbital shaking at 60 rpm for 15 min for OAT1, OAT3, OCT1, OCT2, OATP1B1, and OATP1B3 (±5 min). The pre-incubation buffer from both compartments was aspirated and 150 μL of the following was added to the basal compartment. For the probe substrate transport assay, HBSS in each well contained one of following probe substrates (positive control for transport), OCT1, 2 μM [^3H]-MPP^+; OCT2, 10 μM [^14C]-metformin; OAT1, 2 μM [^3H]-p-aminohippurate; OAT3, 10 μM [^3H]-p-aminohippurate; OATP1B1, 2 μM [^3H]-estradiol-17 β-D-glucuronide; and OATP1B3, 2 μM [^3H]-cholecystokinin octapeptide (CCK-8). […] Inhibition studies contained HBSS in each well, the probe substrate, and 100 μM of each test article, whereas substrate studies contained HBSS in each well and 10 μM of each test article. […] Samples containing probe substrate were added to 200 μL of scintillation fluid and counted on a 1450 Microbeta (PerkinElmer), whereas samples containing the test article were kept frozen. Test article concentrations, including control samples, were evaluated by an LC-MS method.
(§2) Signal to noise for probe substrates was calculated by dividing the uptake of the probe substrate in transporter-expressing cells by the uptake of probe substrate in control cells not expressing the transporter of interest. Percent inhibition was calculated by dividing the net-transporter-mediated substrate uptake in the presence of the test article or the reference inhibitor by the net-transporter-mediated substrate uptake in the absence of the inhibitor according to the equation: %inhibition=100−(100×(transporter-mediateduptake)withinhibitor/(transporter-mediateduptake)withoutinhibitor).

OAT1 = test system: T2, OAT1; experiment: OAT1 substrate uptake study in MDCK cells; conditions: 10 μM ASO
T2 construct: expressed in transfected cells; host or cells: MDCK-II
Protocol: as §1, §2

[1] = test system: OAT1, OAT3, OCT1, OCT2, OATP1B1, OATP1B3, BCRP, P-gp, and BSEP; experiment: Inhibition studies of major SLC and ABC transporters, all transporters evaluated; conditions: 100 μM ASO
Protocol: A 96-well cell culture plate containing a monolayer of MDCK-II cells grown on a permeable support and a corresponding receiver tray was used. The basolateral compartment of the culture plate and wells were washed with warm HBSS three times, with wells of the culture plate serving as the apical compartment. The wash was aspirated by adding 150 μL of 37°C HBSS to both compartments. Plates were incubated at 37°C with orbital shaking at 60 rpm for 15 min for OAT1, OAT3, OCT1, OCT2, OATP1B1, and OATP1B3 (±5 min). The pre-incubation buffer from both compartments was aspirated and 150 μL of the following was added to the basal compartment. For the probe substrate transport assay, HBSS in each well contained one of following probe substrates (positive control for transport), OCT1, 2 μM [^3H]-MPP^+; OCT2, 10 μM [^14C]-metformin; OAT1, 2 μM [^3H]-p-aminohippurate; OAT3, 10 μM [^3H]-p-aminohippurate; OATP1B1, 2 μM [^3H]-estradiol-17 β-D-glucuronide; and OATP1B3, 2 μM [^3H]-cholecystokinin octapeptide (CCK-8). […] Inhibition studies contained HBSS in each well, the probe substrate, and 100 μM of each test article, whereas substrate studies contained HBSS in each well and 10 μM of each test article. Plates were incubated at 37°C with orbital shaking at 60 rpm for 5 min. Both sides of the permeable support were washed four times with ice-cold PBS and 60 μL of cell extraction solution was added to each well. Plates were agitated for 15 min at 120 rpm, after which a 30-μL sample of the extract was collected. Samples containing probe substrate were added to 200 μL of scintillation fluid and counted on a 1450 Microbeta (PerkinElmer), whereas samples containing the test article were kept frozen. Test article concentrations, including control samples, were evaluated by an LC-MS method.
MDCK-MDR1 cells and MDCK-II cells transfected with BCRP were washed with HBSS at 37°C. Wells of the culture plate served as the apical compartment, and 150 μL of HBSS solutions was added to the apical wells. […]

OATP1B3 = test system: T3, OATP1B3; experiment: OATP1B3 substrate uptake study in MDCK cells; conditions: 10 μM ASO
T3 construct: expressed in transfected cells; host or cells: MDCK-II
Protocol: as §1, §2

| Substance | OCT1-mediated uptake relative to corresponding controls (OCT1) | OAT1-mediated uptake relative to corresponding controls (OAT1) | Inhibitor of BCRP, P-gp, OAT1, OAT3, OCT1, OCT2, OATP1B1, OATP1B3, or BSEP (conclusion) [1] | OATP1B3-mediated uptake relative to corresponding controls (OATP1B3) |
| --- | --- | --- | --- | --- |
| ISIS 304801: 20-mer (5-10-5) 2′-MOE gapmer PS backbone antisense inhibitor of apoC-III, sequence AGCTTCTTGTCCAGCTTTAT (sugars from the 5' end e5 d10 e5, all phosphorothioate, methylation of C not given here) | < 2 fold | < 2 fold | not considered inhibitors | < 2 fold |
| ISIS 420915: 20-mer 2′-MOE gapmer PS backbone antisense inhibitor of transthyretin, sequence TCTTGGTTACATGAAATCCC (all phosphorothioate, sugars by position and methylation of C not given here; 2'-MOE gapmer) | < 2 fold | < 2 fold | not considered inhibitors | < 2 fold |
| ISIS 681257: 20-mer 2′-MOE gapmer PS/PO mixed backbone ASO conjugated to 5′-trishexylamino GalNAc3, targets Lp(a), sequence TGCTCCGTTGGTGCTTGTTC (5' {GalNAc3}, sugars by position and backbone not given here; 2'-MOE gapmer with mixed PS/PO backbone) | < 2 fold | < 2 fold | not considered inhibitors | < 2 fold |
